Biological target: T1, Relaxin-3 receptor 1 (Homo sapiens, UniProt Q9NSD7)
T1 sequence (Q9NSD7 whole entry): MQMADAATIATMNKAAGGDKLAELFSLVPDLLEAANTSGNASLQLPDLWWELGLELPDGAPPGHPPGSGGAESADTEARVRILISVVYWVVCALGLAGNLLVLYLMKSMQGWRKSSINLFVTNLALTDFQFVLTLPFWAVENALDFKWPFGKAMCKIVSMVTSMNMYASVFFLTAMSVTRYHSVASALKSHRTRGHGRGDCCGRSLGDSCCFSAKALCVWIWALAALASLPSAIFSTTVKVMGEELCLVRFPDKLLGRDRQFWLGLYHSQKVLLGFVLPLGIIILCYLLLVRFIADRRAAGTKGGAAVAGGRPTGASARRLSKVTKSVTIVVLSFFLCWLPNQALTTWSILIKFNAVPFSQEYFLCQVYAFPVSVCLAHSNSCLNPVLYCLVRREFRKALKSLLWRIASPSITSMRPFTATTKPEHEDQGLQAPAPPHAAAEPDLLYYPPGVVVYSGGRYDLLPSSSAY
Test: Antagonist activity at human RXFP3 expressed in CHO-K1 cells assessed as forskolin-induced cAMP accumulation measured after 30 mins in presence of relaxin-3 by TR-FRET assay
Format: functional, cell-based

IC50	SMILES
> 10000 nM	Cc1ccc(-c2noc(-c3ccc(NC(=O)C4CC(=O)N(Cc5ccccc5F)C4)cc3)n2)cc1 (configuration not stated)
2120 nM	Cc1ccc(-c2noc(-c3ccc(NC(=O)C4CC(=O)N(Cc5cccnc5)C4)cc3)n2)cc1 (configuration not stated)

Reference: ChEMBL document CHEMBL5154921, “Discovery and Characterization of the First Nonpeptide Antagonists for the Relaxin-3/RXFP3 System” (J Med Chem, 2022)
